Measured values as given in the NIST ThermoML archive (doi:10.1021/je800497u).
± gives the expanded uncertainty stated by the source.

Conditions: 293.15 K; 101 kPa; Liquid

Compared with `CCCCCCCO` [heptan-1-ol], `CCCCCCCCCO` [nonan-1-ol] is higher in mass density: 822.2 ± 0.6 kg/m3 for the first, 827.9 ± 0.7 kg/m3 for the second.

First: CCCCCO [pentan-1-ol]
Second: CCCO [propan-1-ol]
The mass density of the first is higher: 814.6 ± 0.6 kg/m3 for the first, 803.5 ± 0.7 kg/m3 for the second.

Going from `CCCCCCCO` [heptan-1-ol] to `CCCCCCCCCO` [nonan-1-ol], the viscosity rises from 7.104 ± 0.14 mPa·s to 11.68 ± 0.22 mPa·s.

Going from `CCCCCO` [pentan-1-ol] to `CCCO` [propan-1-ol], the viscosity falls from 4.029 ± 0.089 mPa·s to 2.272 ± 0.052 mPa·s.

Same assay, conditions: 298.15 K; 101 kPa; Liquid

Compared with `CCCCCCCO` [heptan-1-ol], `CCCCCCCCCO` [nonan-1-ol] is higher in mass density: 818.7 ± 0.6 kg/m3 for the first, 824.4 ± 0.7 kg/m3 for the second.

Compared with `CCCCCO` [pentan-1-ol], `CCCO` [propan-1-ol] is lower in mass density: 811 ± 0.6 kg/m3 for the first, 799.6 ± 0.7 kg/m3 for the second.

First: CCCCCCCO [heptan-1-ol]
Second: CCCCCCCCCO [nonan-1-ol]
The viscosity of the first is lower: 5.993 ± 0.12 mPa·s for the first, 9.671 ± 0.18 mPa·s for the second.

Going from `CCCCCO` [pentan-1-ol] to `CCCO` [propan-1-ol], the viscosity falls from 3.494 ± 0.077 mPa·s to 1.966 ± 0.045 mPa·s.
